Experimental data taken from US20260265267A1, “NOVEL COMPOUNDS WITH MTORC2-INHIBITORY ACTIVITY AND USES THEREOF” (Aliad Biopharma, priority 2023, published 2026).

Key:
mTORC2 [1] = biological target: T1, mTORC2 (Homo sapiens, UniProt P42345); assay: mTORC2 inhibitory activity in HeLa cells (Akt Ser473 phosphorylation, Western blot); type: cell-based; settings: for selective inhibition of mTORC2: 40 μM, versus mTORC1; for selective inhibition of mTORC2 / remaining activity at 40 µM: 9 hours; for remaining activity at 40 µM: read-out: pSer473-AKT/AKT (% control); for inhibition at 40 µM: HeLa, 9 h, read-out: reduction in Akt Ser473 phosphorylation compared to the control group
T1 construct: the following experiments were conducted in HeLa cells; endogenous in cells; host or cells: HeLa
Protocol: (§1) Specifically, HeLa cells were cultured in a 5% CO2 incubator at 37° C. in DMEM (Dulbecco's Modified Eagles Media) medium supplemented with 10% FBS, penicillin (100 unit/ml), and streptomycin (100 μg/ml). Cultivation was started by seeding 4×10^5 cells in a 100 mm culture dish, and subculture was carried out every 3 days.
(§2) Human cell line HeLa cells were seeded in a 60 mm culture dish at a density of 2×10^5 cells/plate, and cultured for 24 hours. Then, HeLa cells were treated with 70 types of compounds at a concentration of 40 μM each for 9 hours. HeLa cells were washed twice with cold 1×PBS, and then lysed with 100 μl of RIPA buffer (50 mM Tris-HCl (pH7.4), 0.25% sodium deoxycholate, 50 mM NaF, 1% NP-40, 150 mM NaCl, 1 mM β-glycerophosphate, 1 mM PMSF, 1 mM NaVO4, 1 μg/ml leupeptin, 1 μg/ml pepstatin A, 10 nM calyculin A, 10 μg/ml aprotinin, 1 mM EDTA) to hemolyze the cell membrane. Then, the lysates were centrifuged at 12,000 rpm at 4° C. for 10 minutes to collect the supernatant, which is cell lysate. Protein concentration in the cell lysate was determined using the BCA protein assay kit (Thermo Fisher Scientific), and equal amounts of protein were separated by SDS-PAGE.
(§3) Western blot analysis was performed by the following method. […] After washing the membrane three times for 5 minutes each with TBS-T buffer, it was incubated with primary antibodies diluted in TBS-T buffer containing 5% skim milk or 5% BSA overnight at 4° C. Subsequently, the membrane was washed three times for 5 minutes each with TBS-T buffer, and then incubated with secondary antibodies diluted in TBS-T buffer containing 5% skim milk at room temperature for 30 minutes. The membrane was washed five times for 5 minutes each with TBS-T buffer containing 5% skim milk, and then the protein bands bound by the secondary antibody were detected using a chemiluminescence method. The primary antibodies used were Akt (cell signaling, #4691), pAkt(S473) (Cell signaling, #4060), p70S6K (Cell signaling, #S6198), pp70S6K(T389) (cell signaling, #9205S), LC3-II (MBL, #PM036), and the secondary antibodies used were HRP conjugated anti-rabbit (Jackson immunoresearch laboratory, #711-035-152) and HRP conjugated anti-mouse IgG (Jackson immunoresearch laboratory, #515-035-072).
As an mTORC2 activity indicator in HeLa cells, the level of Akt Ser473 phosphorylation was selected as a marker, and the phosphor-Akt (Ser473) signal obtained from Western blot analysis was normalized to the pan-Akt signal, and the data were expressed as a percentage relative to the control group treated with DMSO only, which is a vehicle.

mTORC1 [2] = biological target: T2, mTORC1 (Homo sapiens, UniProt P42345); assay: mTORC1 inhibitory activity in HeLa cells (p70S6K Thr389 phosphorylation, Western blot); type: cell-based; settings: for remaining activity at 40 µM: read-out: pThr389-S6K/S6K (% control)
T2 construct: the following experiments were conducted in HeLa cells; endogenous in cells; host or cells: HeLa
Protocol: as §1, §2, §3
As an mTORC1 activity indicator in HeLa cells, the level of p70S6K Thr389 phosphorylation was selected as a marker, and the level of phosphor-p70S6K (Thr389) signal measured by Western blot analysis was normalized to a level of pan-p70S6K signal, and then expressed as a percentage of the control group treated with only DMSO, which is a vehicle.

LC3-II [3] = assay: LC3-II formation as indicator of autophagy in HeLa cells (Western blot); type: cell-based, human; settings: 9 hours; for activity at 40 µM: Homo sapiens, read-out: LC3-II (% control)
Protocol: as §1, §2, §3
LC3-II formation was selected as an indicator of autophagy in HeLa cells, and the LC3-II signal obtained from Western blot analysis was normalized to the pan-Akt signal and the data were expressed as a percentage relative to the control group treated with DMSO only, which is a vehicle.

[4] = biological target: T3, mTOR(CD) protein and mLST8 protein (Homo sapiens, UniProt P42345+Q9BVC4); assay: mTOR(CD)-mLST8 binding assay (co-precipitation, Western blot); settings: 0.04 to 40 μM
T3 construct: mTOR C-terminal domain (mTOR(CD), a.a. 2179-2549); made in house; host or cells: E. coli (mTOR(CD)); insect Sf9 cells (mLST8, used as a crude extract)
Protocol: mLST8 binds to the mTOR C-terminal domain (mTOR(CD), a.a. 2179-2549). After binding to mTOR, mLST8 interacts with mSin1 and Rictor to complete the formation of the mTORC2 complex, serving as a scaffold. In order to evaluate the inhibitory activity of the compounds synthesized in Examples 1 to 70 on the binding between mLST8 protein and mTOR(CD) protein, the following mTOR(CD)-mLST8 binding assay was performed. Four types of compounds: HN2210, HN2213, HN2221 and HN2313 were used as the experimental target compounds.
Specifically, mTOR(CD) protein was overexpressed in E. coli, labeled with biotin, and then partially purified. mLST8 protein was overexpressed in insect Sf9 cells to obtain mLST8 extract. mTOR(CD)-biotin and mLST8 extract were incubated at 4° C. to induce binding between mTOR(CD)-biotin and mLST8 proteins, and then the mTOR(CD)-biotin and mLST8 complex were co-precipitated using avidin-agarose beads. The relative amounts of precipitated mTOR(CD)-biotin and mLST8 proteins were measured by Western blot analysis, as shown in FIG. 4. Four types of compounds were added during the incubation process of the mTOR(CD)-biotin and mLST8 extract.

mTORC2 [5] = assay: mTORC2 inhibitory activity in primary cultured cerebral neurons (Akt Ser473 phosphorylation); type: cell-based, SD mice; settings: for effect on Akt Ser473 phosphorylation / decrease in AKT Ser473 phosphorylation at 24 hours: 500 nM or 100 nM; for effect on Akt Ser473 phosphorylation / pSer473-AKT/AKT (% control): 24 hours
Protocol: Specifically, primary neural cells were cultured from the cerebral cortex of E16 embryos of SD mice with a gestational age 16-day (Orient Bio). The extracted brain was separated into the left and right hemispheres, the meninges were removed, and the brains were treated with trypsin in Ca^2+/Mg^2+-free HBSS solution.
The time-dependent changes in Akt Ser473 phosphorylation, Akt Thr308 phosphorylation, and LC3-II levels were measured by Western blot analysis.

mTORC1 [6] = assay: mTORC1 inhibitory activity in primary cultured cerebral neurons (S6K Thr389 phosphorylation); type: cell-based, SD mice; settings: for effect on S6K Thr389 phosphorylation: 500 nM or 100 nM, time course to 24 hours (HN2304: from 6 to 24 hours); for pThr389-S6K/S6K (% control): 24 hours
LC3-II [7] = assay: LC3-II levels in primary cultured cerebral neurons; type: cell-based, SD mice; settings: for effect on LC3-II: 500 nM or 100 nM, time course to 24 hours; for LC3-II (% control): 24 hours
Protocol: Specifically, primary neural cells were cultured from the cerebral cortex of E16 embryos of SD […] with a gestational age 16-day (Orient Bio). The extracted brain was separated into the left and right hemispheres, the meninges were removed, and the brains were treated with trypsin in Ca^2+/Mg^2+-free HBSS solution. […] The cells were seeded at a density of 19,000 cells/cm^2 onto 35 mm culture dishes coated with 50 μg/ml poly-D-Lysine (Sigma, P0899) and 1 μg/ml laminin (Invitrogen, 23017-015), and then maintained in neurobasal complete media supplemented with B27 (Gibco, 17504-044) in a 5% CO2 incubator.
Therefore, the evaluation of mTORC2 inhibitory activity in primary cultured cerebral cells was conducted using the same method as in Experimental Example 1, except that each compound was treated at concentrations of 500 nM or 100 nM for 24 hours. The time-dependent changes in Akt Ser473 phosphorylation, Akt Thr308 phosphorylation, and LC3-II levels were measured by Western blot analysis.

SMILES	selective inhibition of mTORC2 (mTORC2 [1])	remaining activity at 40 µM (mTORC2 [1])	inhibition at 40 µM (mTORC2 [1])	remaining activity at 40 µM (mTORC1 [2]; 9 hours)	activity at 40 µM (LC3-II [3])	selectivity for mTORC2 over mTORC1 (mTORC2 [5])	effect on Akt Ser473 phosphorylation (mTORC2 [5])	decrease in AKT Ser473 phosphorylation at 24 hours (mTORC2 [5])	AKT Ser473 phosphorylation from 1 to 12 hours (mTORC2 [5])	effect on S6K Thr389 phosphorylation (mTORC1 [6])	effect on LC3-II (LC3-II [7])	pSer473-AKT/AKT (% control) (mTORC2 [5]; 100 nM)	pThr389-S6K/S6K (% control) (mTORC1 [6]; 100 nM)	LC3-II (% control) (LC3-II [7]; 100 nM)	further results
O=C1c2cc(F)c(NC3CCCCC3)cc2COc2cc3c(cc21)OCO3 [HN2221, 8-(cyclohexylamino)-9-fluoro[2]benzoxepino[3,4-f]-1,3-benzodioxol-11(6H)-one]	selectively inhibit mTORC2	77%	> 20%	93%	119%										inhibition of the binding between mTOR(CD) and mLST8 proteins [4]: did not significantly inhibit
COc1cc2c(cc1OC)C(=O)c1cc(Br)ccc1CS2 [HN2304, 9-bromo-2,3-dimethoxydibenzo[b,e]thiepin-11(6H)-one]	selectively inhibit mTORC2	44%	> 20%	204%		selective mTORC2 inhibitors	reduce Akt Ser473 phosphorylation	17%	significantly increased	markedly increased	not affected				pSer473-AKT/AKT (% control) (mTORC2 [5]; 500 nM): 82 % control; pThr389-S6K/S6K (% control) (mTORC1 [6]; 500 nM): 504 % control; LC3-II (% control) (LC3-II [7]; 500 nM): 82 % control
COc1cc2c(cc1OC)C(=O)c1cc(-c3ccoc3)ccc1CS2 [HN2308, 9-(3-furanyl)-2,3-dimethoxydibenzo[b,e]thiepin-11(6H)-one]	selectively inhibit mTORC2	44%		95%		selective mTORC2 inhibitors	reduce Akt Ser473 phosphorylation	54%	increased AKT Ser473 phosphorylation significantly	no effect	no effect	46 % control	104 % control	119 % control	effect on S6K Thr389 phosphorylation (mTORC1 [2]; 40 μM, 9 hours): no effect
COc1ccccc1CNc1cc2c(cc1F)C(=O)c1cc3c(cc1OC2)OCO3 [HN2323, 9-fluoro-8-((2-methoxybenzyl)amino)-[1,3]dioxolo[4′,5′:4,5]benzo[1,2-b]benzo[e]oxepin-11(6H)-one]		72%	> 20%	60%	180%	selective mTORC2 inhibitors	reduce Akt Ser473 phosphorylation	52%	increased AKT Ser473 phosphorylation significantly	no effect	no effect	48 % control	128 % control	135 % control	inhibition at 40 µM (mTORC1 [2]; HeLa, 9 h, read-out: reduction in p70S6K Thr389 phosphorylation compared to the control group): 40%; increase in LC3-II (LC3-II [3]; 40 μM): 80%
